Measured values reported in patent publication US20220218837A1, “DRUG CONJUGATE” (priority 2018, published 2022).
pIC50: −log10 of the molar value.

Tests used:
HeLa cells (EGFR+/-) = assay: Cell killing / cell viability, HeLa cells
[1] = test system: A431 cells (EGFR++/HER2+/-/CD71+)
[2] = test system: HSP27 mRNA in A2058 cells (EGFR-); assay: HSP27 gene silencing in A2058 cells; type: cell-based, human; conditions: titrated + fixed 4000 nM SO1861-EMCH, nM of HSP27BNA or of conjugate
Method: (§1) Cells were seeded in DMEM (PAN-Biotech GmbH) supplemented with 10% fetal bovine serum (PAN-Biotech GmbH) and 1% penicillin/streptomycin (PAN-Biotech GmbH), in a 96 well plate at 5,000 c/w in 100 μL/well and incubated overnight at 37° C. and 5% CO2. The next day samples were prepared in DMEM and cells were treated.
(§2) RNA isolation and Qper analysis was performed according to standard procedures and protocols.

[3] = test system: HSP27 mRNA in A431 cells (EGFR++); assay: HSP27 gene silencing in A431 cells; type: cell-based, human
Method: as §1, §2

[4] = test system: SK-BR-3, JIMT-1, MDA-MB-468, A431, CaSki, HeLa, A2058; assay: Control treatments, relative cell viability on all cell lines; type: cell-based, human; conditions: wide range of toxin concentrations, up to 100.000 pM

CC(=O)OC1C(C)OC(OC2C(C)OC(OC(=O)[C@]34CCC(C)(C)CC3C3=CCC5[C@@]6(C)CC[C@H](OC7OC(C(=O)O)C(O)C(OC8OCC(O)C(O)C8O)C7OC7OC(CO)C(O)C(O)C7O)[C@@](C)(/C=N/NC(=O)CCCCCN7C(=O)C=CC7=O)C6CC[C@@]5(C)[C@]3(C)C[C@H]4O)C(OC3OC(C)C(OC4OCC(O)C(OC5OC(CO)C(O)C(O)C5O)C4O)C(O)C3O)C2O)C(O)C1OC1OCC(O)C(O)C1O (some centres unmarked) [SO1861-EMCH]
concentration above which general toxicity is seen without EGFdianthin (HeLa cells (EGFR+/-); single compound): > 25.000 nM | concentration above which general toxicity is seen without EGFdianthin ([1]; single compound): > 25.000 nM | concentration above which general toxicity is seen without EGFdianthin (A2058 cells (EGFR-); single compound): > 25.000 nM | IC50 cell viability reduction (A2058 cells (EGFR-); titrated + fixed […] EGFdianthin): not affected at all

HSP27BNA: antisense BNA oligo targeting HSP27 mRNA, sequence 5′-GGCacagccagtgGCG-3′ (antisense GGCACAGCCAGTGGCG; BNA modifications)
IC50 [2]: 10 nM | pIC50 ([3]; titrated + fixed 28.6 nM or 77 nM cetuximab-(Cys-L-SO1861)^3.9): 8.00 | IC50 ([3]; titrated + fixed 4000 nM SO1861-EMCH, nM of HSP27BNA or of conjugate): 10 nM

CC(=O)OC1C(C)OC(OC2C(C)OC(OC(=O)[C@]34CCC(C)(C)CC3C3=CCC5[C@@]6(C)CC[C@H](OC7OC(C(=O)O)C(O)C(OC8OCC(O)C(O)C8O)C7OC7OC(CO)C(O)C(O)C7O)[C@@](C)(C=O)C6CC[C@@]5(C)[C@]3(C)C[C@H]4O)C(OC3OC(C)C(OC4OCC(O)C(OC5OC(CO)C(O)C(O)C5O)C4O)C(O)C3O)C2O)C(O)C1OC1OCC(O)C(O)C1O (some centres unmarked) [SO1861]
IC50 cell viability (general toxicity) (HeLa cells (EGFR+/-); substance alone, in absence of EGFdianthin): strong cell viability reduction | IC50 cell killing ([1]; substance alone, no partner): strong cell viability reduction | IC50 cell killing (A2058 cells (EGFR-); substance alone, no partner): strong cell viability reduction

saporin
influence on cell viability [4]: do not or hardly have any influence on cell viability
